According to patent US10849886B2, “Combination therapy using azabicyclo compound for cancer” (TAIHO PHARMACEUTICAL CO., LTD., priority 2013, dated 2020):

Columns and labels:
[1] = test system: NCI-H2170 tumor; test: Nude mouse xenograft, NSCLC NCI-H2170, tumor growth (T/C); assay type: in vivo, nude mice; conditions: Compound 1 5 mg/kg orally, docetaxel 15 mg/kg intravenously on first day, alone or combined; RTV ratio to control on test end date
Description: NCI-H2170 (ATCC #CRL-5928) as a human non-small cell lung cancer (NSCLC) cell line was obtained from American Type Culture Collection (ATCC; Manassas, Va., USA). In RPMI-1640 (containing 4.5 g/L of glucose, 10 mM of HEPES, and 1 mM of sodium pyruvate) (Wako Pure Chemical Industries, Ltd.) medium supplemented with 10% fetal bovine serum (FBS), cell lines were cultured. The cells cryopreserved in liquid nitrogen were quickly thawed at 37° C., transferred to a tissue culture flask containing a medium, and allowed to grow in a 5% CO2 incubator at 37° C. The NCI-H2170 cell lines were sub-cultured once to twice a week at a dilution ratio of 1:5 to 1:10. […]
Subsequently, the cell was allowed to grow for one to two weeks after transplantation until the tumor volume (TV) reached 100 to 300 mm^3. Digimatic Caliper was used in measurement of the tumor diameter, the major axis and the minor axis of the tumor were measured, and TV was calculated by the following formula. […]
Animals having an extremely small or large tumor volume were excluded and the remaining animals were allocated to each group by a stratified randomization allocation method using TV as an index. A relative tumor volume (RTV) was calculated from TV as an endpoint. […] RTV and T/C (%) were calculated by the following formula. […]

[2] = test system: NCI-H441 tumor; test: Nude mouse xenograft, NSCLC NCI-H441, tumor growth (T/C); assay type: in vivo, nude mice; conditions: Compound 1 5 mg/kg orally, paclitaxel 30 mg/kg intravenously on first day, alone or combined; test end date
[3] = test system: NCI-N87 tumor; test: Nude mouse xenograft, stomach cancer line NCI-N87, tumor growth (T/C); assay type: in vivo, nude mice; conditions: Compound 1 5 mg/kg orally, cisplatin 7 mg/kg intravenously on first day, alone or combined; test end date
[4] = test system: SBC-1 tumor; test: Nude mouse xenograft, small cell lung cancer line SBC-1, tumor growth (T/C); assay type: in vivo, nude mice; conditions: Compound 1 28 mg/kg orally on Days 1, 3, 5, 8, 10, 12, amrubicin […] intravenously on first day, alone or combined; test end date
[5] = Storage stability of Compound 1 suspension in 0.5% hypromellose aqueous solution; assay type: physicochemical; conditions: stored in refrigerator
Description: In order to administer Compound 1, a 0.5% hypromellose aqueous solution was prepared. Hypromellose was weighed in a beaker, and distilled water (Otsuka Pharmaceutical Factory, Inc.) was added thereto in an amount of about 80% of the preparation amount. The mixture was completely dissolved by being stirred overnight using a stirrer at a low-temperature chamber, the resultant solution was transferred to a measuring cylinder, and distilled water was added to dilute to the preparation amount. Compound 1 was weighed in a necessary amount, pulverized with an agate mortar, suspended with a 0.5% hypromellose aqueous solution to have a predetermined concentration, and then subjected to ultrasonic treatment, thereby obtaining a homogeneous suspension. 10 mL of this suspension was administered orally per kg of body weight. Incidentally, the suspension was stored in a refrigerator at times other than administration.

Structure (SMILES) | T/C value [1] [%] | T/C value [2] [%] | T/C value [3] [%] | T/C value [4] [%] | stability of suspension [5]
CCc1cc(C(N)=O)ccc1-n1nc(C(C)C)c2c(-n3cnc(-c4cnn(C)c4)c3)ccnc21 [Compound 1, 3-ethyl-4-{3-isopropyl-4-(4-(1-methyl-1H-pyrazol-4-yl)-1H-imidazol-1-yl)-1H-pyrazolo[3,4-b]pyridin-1-yl}benzamide] | 72 | 63 | 51 | 49 | refrigerator-stable for two weeks
CC(=O)[C@]1(N)Cc2c(O)c3c(c(O)c2[C@@H](O[C@H]2C[C@H](O)[C@H](O)CO2)C1)C(=O)c1ccccc1C3=O [amrubicin, reference compound] | – | – | – | 40 | –
N.N.[Cl][Pt][Cl] [cisplatin, reference compound] | – | – | 65 | – | –
CC(=O)O[C@@]12CO[C@@H]1C[C@H](O)[C@@]1(C)C(=O)[C@H](O)C3=C(C)[C@@H](OC(=O)[C@H](O)[C@@H](NC(=O)OC(C)(C)C)c4ccccc4)C[C@@](O)([C@@H](OC(=O)c4ccccc4)[C@H]21)C3(C)C [docetaxel, reference compound] | 86 | – | – | – | –
CC(=O)O[C@H]1C(=O)[C@@]2(C)[C@H]([C@H](OC(=O)c3ccccc3)[C@]3(O)C[C@H](OC(=O)[C@H](O)[C@@H](NC(=O)c4ccccc4)c4ccccc4)C(C)=C1C3(C)C)[C@]1(OC(C)=O)CO[C@@H]1C[C@@H]2O [paclitaxel, reference compound] | – | 41 | – | – | –
